Columns and labels:
rat [1] = conditions: Prenatal developmental toxicity study, sprague dawley, Oral, Gavage/Intubation, dose end: 18 GD
rat [2] = conditions: Sub-acute repeat dose toxicity; Oral; Gavage/Intubation; dose end: 38 day; group: systemic; systemic / clinical chemistry / albumin / albumin + systemic / clinical chemistry / creatinine / creatinine + systemic / clinical chemistry…
mouse [3] = conditions: Subchronic oral toxicity in rodents, Feed, dose end: 92 day, group: systemic
rabbit [4] = conditions: Sub-acute repeat dose toxicity; new zealand white; Oral; Gavage/Intubation; dose end: 5 day; group: systemic; systemic / in life observation / food consumption / food consumption
rat [5] = conditions: Peri- and post-natal toxicity study (Segment III), Oral, Gavage/Intubation, dose end: 1 generation
rat [6] = conditions: Sub-acute repeat dose toxicity, sprague dawley, Oral, Feed, dose end: 15 day, group: systemic
dog [7] = conditions: Sub-acute repeat dose toxicity, beagle, Oral, Gavage/Intubation, dose end: 8 day, group: systemic
rabbit [8] = conditions: Prenatal developmental toxicity study, new zealand white, Oral, Gavage/Intubation, dose end: 19 GD, group: maternal
dog [9] = conditions: Subchronic oral toxicity in nonrodent, beagle, Gavage/Intubation, dose end: 98 day, group: systemic
rat [10] = conditions: Subchronic oral toxicity in rodents, sprague dawley, Gavage/Intubation, dose end: 90 day, group: systemic, systemic / clinical chemistry / calcium / calcium + systemic / clinical chemistry / cholesterol / cholesterol + systemic / clinical …
rat [11] = conditions: Sub-acute repeat dose toxicity; Oral; Gavage/Intubation; dose end: 14 day; group: systemic; systemic / in life observation / body weight / body weight gain + systemic / in life observation / clinical signs / reduced activity + …
rat [12] = conditions: Fertility (Segment I); sprague dawley; Oral; Gavage/Intubation; dose end: 1 generation; group: parental; systemic / in life observation / body weight / body weight + systemic / in life observation / clinical signs / salivation + systemic / in …
mouse [13] = conditions: Sub-acute repeat dose toxicity, Oral, Feed, dose end: 15 day, group: systemic
rat [14] = conditions: Fertility (Segment I); sprague dawley; Oral; Gavage/Intubation; dose end: 1 generation; group: parental; systemic / in life observation / body weight / body weight + systemic / in life observation / clinical signs / salivation + systemic / in …; remark: listed apart in the source
rat [15] = conditions: Sub-acute repeat dose toxicity; Oral; Gavage/Intubation; dose end: 19 day; group: systemic; systemic / in life observation / body weight / body weight + systemic / in life observation / clinical signs / salivation
rat [16] = conditions: Subchronic oral toxicity in rodents, sprague dawley, Feed, dose end: 92 day, group: systemic
rabbit [17] = conditions: Sub-acute repeat dose toxicity, new zealand white, Oral, Gavage/Intubation, dose end: 13 day
rat [18] = conditions: Carcinogenicity; fischer; Oral; Gavage/Intubation; dose end: 103 week; group: systemic; systemic / in life observation / body weight / body weight
rat [19] = conditions: Subchronic oral toxicity in rodents, fischer, Gavage/Intubation, dose end: 13 week, group: systemic
mouse [20] = conditions: Subchronic oral toxicity in rodents, b6c3f1, Gavage/Intubation, dose end: 13 week, group: systemic, systemic / in life observation / body weight / body weight
mouse [21] = conditions: Carcinogenicity, b6c3f1, Oral, Gavage/Intubation, dose end: 103 week, group: systemic
[22] = group: developmental, developmental / developmental malformation / bone / [other] + systemic / in life observation / body weight / fetal weight
[23] = group: maternal, systemic / in life observation / body weight / body weight + systemic / in life observation / clinical signs / salivation + systemic / in …
[24] = systemic / clinical chemistry / cholesterol / cholesterol + systemic / in life observation / body weight / body weight + systemic / clinical…
[25] = systemic / hematology / lymphocyte / lymphocyte
[26] = group: developmental, developmental / developmental landmark / eye opening / eye opening
[27] = group: parental, systemic / in life observation / body weight / body weight + systemic / in life observation / body weight / body weight gain + systemic / in…
[28] = systemic / in life observation / body weight / body weight + systemic / in life observation / clinical signs / alopecia + systemic / in life…
[29] = systemic / hematology / leukocyte (wbc) count differential / leukocyte (wbc) + systemic / in life observation / clinical signs / abnormal …
[30] = systemic / in life observation / clinical signs / abnormal feces + systemic / in life observation / clinical signs / salivation
[31] = systemic / in life observation / food consumption / food consumption
[32] = systemic / in life observation / food consumption / food consumption + reproductive / reproductive performance / aborted / aborted + …
[33] = systemic / in life observation / clinical signs / salivation
[34] = systemic / in life observation / clinical signs / salivation + systemic / in life observation / clinical signs / emesis
[35] = systemic / in life observation / body weight / body weight + systemic / in life observation / clinical signs / hunched posture + systemic / …
[36] = systemic / in life observation / body weight / body weight
[37] = systemic / in life observation / body weight / body weight + systemic / in life observation / clinical signs / lacrimation or red-colored …
[38] = group: maternal, reproductive / reproductive performance / aborted / aborted
[39] = group: systemic, systemic / in life observation / body weight / body weight gain + systemic / in life observation / food consumption / food consumption
[40] = group: systemic, systemic / in life observation / body weight / body weight gain + systemic / in life observation / food consumption / food consumption + …
[41] = systemic / in life observation / body weight / body weight + systemic / in life observation / mortality / mortality + systemic / pathology …
[42] = systemic / pathology microscopic / liver / hypertrophy + systemic / pathology microscopic / liver / necrosis + systemic / pathology …

CS(=O)(=O)O.Cc1nccn1-c1ccc(Sc2cccc(C3(C(N)=O)CCOCC3)c2)cc1 was tested, and the LEL (rat [1]; [22]) was 50 mg/kg/day, the LOAEL (rat [1]; [22]) was over 50 mg/kg/day and the NOAEL (rat [1]; [22]) was at least 50 mg/kg/day. It also gave an LOAEL (rat [1]; [23]) of over 50 mg/kg/day, an NEL (rat [1]; [23]) of 5 mg/kg/day and an NOAEL (rat [1]; [23]) of at least 50 mg/kg/day. The LEL (rat [1]; group: maternal, systemic / in life observation / body weight / body weight + systemic / in life observation / food consumption / food consumption) was 15 mg/kg/day, the LEL (rat [2]) was 250 mg/kg/day and the LOAEL (rat [2]) was over 250 mg/kg/day. For the same molecule, the NEL (rat [2]) was under 250 mg/kg/day, the NOAEL (rat [2]) was at least 250 mg/kg/day and the LOAEL (mouse [3]; [24]) was over 600 mg/kg/day. For the same molecule, the NOAEL (mouse [3]; [24]) was at least 600 mg/kg/day, the LEL (mouse [3]; [25]) was 30 mg/kg/day and the NEL (mouse [3]; [25]) was under 30 mg/kg/day. It also gave an LEL (rabbit [4]) of 10 mg/kg/day, an LOAEL (rabbit [4]) of over 100 mg/kg/day and an NEL (rabbit [4]) of under 10 mg/kg/day. For the same molecule, the NOAEL (rabbit [4]) was at least 100 mg/kg/day, the LEL (rat [5]; [26]) was 50 mg/kg/day and the LOAEL (rat [5]; [26]) was over 50 mg/kg/day. The NOAEL (rat [5]; [26]) was at least 50 mg/kg/day, the LEL (rat [5]; [27]) was 15 mg/kg/day and the LOAEL (rat [5]; [27]) was over 50 mg/kg/day. For the same molecule, the NEL (rat [5]; [27]) was 5 mg/kg/day, the NOAEL (rat [5]; [27]) was at least 50 mg/kg/day and the LOAEL (rat [6]; [28]) was over 600 mg/kg/day. For the same molecule, the NEL (rat [6]; [28]) was 30 mg/kg/day, the NOAEL (rat [6]; [28]) was at least 600 mg/kg/day and the LEL (rat [6]; systemic / in life observation / body weight / body weight + systemic / in life observation / food consumption / food consumption) was 100 mg/kg/day. For the same molecule, the LOAEL (dog [7]; [29]) was over 60 mg/kg/day, the NOAEL (dog [7]; [29]) was at least 60 mg/kg/day and the LEL (dog [7]; [30]) was 3 mg/kg/day. For the same molecule, the NEL (dog [7]; [30]) was under 3 mg/kg/day, the LEL (rabbit [8]; [31]) was 2 mg/kg/day and the NEL (rabbit [8]; [31]) was under 2 mg/kg/day. The LOAEL (rabbit [8]; [32]) was over 25 mg/kg/day, the NOAEL (rabbit [8]; [32]) was at least 25 mg/kg/day and the LEL (dog [9]; [33]) was 3 mg/kg/day. It also gave an NEL (dog [9]; [33]) of under 3 mg/kg/day, an LOAEL (dog [9]; [34]) of over 30 mg/kg/day and an NOAEL (dog [9]; [34]) of at least 30 mg/kg/day. The LEL (rat [10]) was 20 mg/kg/day, the LOAEL (rat [10]) was over 150 mg/kg/day and the NEL (rat [10]) was 5 mg/kg/day. It also gave an NOAEL (rat [10]) of at least 150 mg/kg/day, an LEL (rat [11]) of 200 mg/kg/day and an LOAEL (rat [11]) of over 200 mg/kg/day. For the same molecule, the NEL (rat [11]) was under 200 mg/kg/day, the NOAEL (rat [11]) was at least 200 mg/kg/day and the LEL (rat [12]) was 50 mg/kg/day. It also gave an LOAEL (rat [12]) of over 50 mg/kg/day, an NEL (rat [12]) of 15 mg/kg/day and an NOAEL (rat [12]) of at least 50 mg/kg/day. The LOAEL (mouse [13]; [35]) was over 1200 mg/kg/day, the NOAEL (mouse [13]; [35]) was at least 1200 mg/kg/day and the LEL (mouse [13]; systemic / in life observation / body weight / body weight + systemic / in life observation / food consumption / food consumption + systemic…) was 600 mg/kg/day. For the same molecule, the LEL (rat [14]) was 50 mg/kg/day, the LOAEL (rat [14]) was over 50 mg/kg/day and the NEL (rat [14]) was 15 mg/kg/day. It also gave an NOAEL (rat [14]) of at least 50 mg/kg/day, an LEL (rat [15]) of 100 mg/kg/day and an LOAEL (rat [15]) of over 100 mg/kg/day. The NEL (rat [15]) was under 100 mg/kg/day, the NOAEL (rat [15]) was at least 100 mg/kg/day and the LEL (rat [16]; [36]) was 10 mg/kg/day. The NEL (rat [16]; [36]) was under 10 mg/kg/day, the LOAEL (rat [16]; [37]) was over 100 mg/kg/day and the NOAEL (rat [16]; [37]) was at least 100 mg/kg/day. The LEL (rabbit [17]; [38]) was 50 mg/kg/day, the LOAEL (rabbit [17]; [38]) was over 200 mg/kg/day and the NEL (rabbit [17]; [38]) was 10 mg/kg/day. It also gave an NOAEL (rabbit [17]; [38]) of at least 200 mg/kg/day, an LEL (rabbit [17]; [39]) of 10 mg/kg/day and an NEL (rabbit [17]; [39]) of under 10 mg/kg/day. It also gave an LOAEL (rabbit [17]; [40]) of over 200 mg/kg/day and an NOAEL (rabbit [17]; [40]) of at least 200 mg/kg/day.
In the case of CC(Cl)CCl (configuration not stated) [1,2-Dichloropropane], the LEL (rat [18]) is reported as 62 mg/kg/day, the LOAEL (rat [18]) is reported as 125 mg/kg/day and the NEL (rat [18]) is reported as under 62 mg/kg/day. It also gave an LEL (rat [19]; systemic / in life observation / body weight / body weight + systemic / in life observation / mortality / mortality) of 500 mg/kg/day, an LOAEL (rat [19]; [41]) of over 1000 mg/kg/day and an NEL (rat [19]; [41]) of 250 mg/kg/day. It also gave an NOAEL (rat [19]; [41]) of at least 1000 mg/kg/day, an LEL (mouse [20]) of 30 mg/kg/day and an LOAEL (mouse [20]) of 500 mg/kg/day. It also gave an NEL (mouse [20]) of under 30 mg/kg/day, an NOAEL (mouse [20]) of 250 mg/kg/day and an LOAEL (mouse [21]; systemic / pathology microscopic / liver / hypertrophy + systemic / pathology microscopic / liver / necrosis) of 250 mg/kg/day. For the same molecule, the LEL (mouse [21]; [42]) was 125 mg/kg/day, the NEL (mouse [21]; [42]) was under 125 mg/kg/day and the NOAEL (mouse [21]; [42]) was 125 mg/kg/day.

— EPA's ToxRefDB 2
